Laboratory results: patent publication US20200222537A1, “BIOPHOTONIC COMPOSITIONS AND USES THEREOF” (KLOX TECHNOLOGIES LIMITED, priority 2016, published 2020)
In brackets after ≈: the same amount, converted by molar mass. Several values for one entry are separate records, joined by “and”; a condition that tells them apart may be missing. Equal values may be shown once.

Key:
[1] = physchem
[2] = Absorbance peak (Flex Station II); type: physicochemical
Experimental: (§1) The compounds were dissolved in the solvents and at the concentrations indicated in Table 2 and the absorbance and emission peaks were measured (measured using a Flex Station II, Model 384 by Molecular Devices Comp.).

[3] = Emission peak (Flex Station II); type: physicochemical
Experimental: as §1

[4] = Solubilization of chromophores in solvents; conditions: 1 M NaOH, aqueous buffer

## O=C(OC[C@H]1O[C@@H](OC(=O)c2cc(O)c(O)c(OC(=O)c3cc(O)c(O)c(O)c3)c2)[C@H](OC(=O)c2cc(O)c(O)c(OC(=O)c3cc(O)c(O)c(O)c3)c2)[C@@H](OC(=O)c2cc(O)c(O)c(OC(=O)c3cc(O)c(O)c(O)c3)c2)[C@@H]1OC(=O)c1cc(O)c(O)c(OC(=O)c2cc(O)c(O)c(O)c2)c1)c1cc(O)c(O)c(OC(=O)c2cc(O)c(O)c(O)c2)c1 [Tannic acid]
[1]; water
  solubility: 10000 µg/mL (≈ 5.88 mM)

## O=C(O)/C=C/c1ccc(O)c(O)c1 [Caffeic acid]
[2]; liquid
  Absorbance peak (nm): 875 nm (liquid)

## C/C=C1/[C@H](O[C@@H]2O[C@H](CO)[C@@H](O)[C@H](O)[C@H]2O)OC=C(C(=O)OC)[C@H]1CC(=O)OCCc1ccc(O)c(O)c1 [Oleuropein]
[2]; gel and liquid
  Absorbance peak (nm): 325 nm (gel and
[1]; organic solvent or mixture
  solubility: 10000 µg/mL (≈ 18.5 mM)

## O=C(/C=C/c1ccc(O)c(O)c1)OCCc1ccccc1 [Caffeic acid phenethyl ester (CAPE), Caffeic acid phenethyl ester]
[1]; organic solvent or mixture
  solubility: 10000 µg/mL (≈ 35.2 mM)

## O=c1oc2c(O)c(O)cc3c(=O)oc4c(O)c(O)cc1c4c23 [Ellagic acid]
[2]; gel
  Absorbance peak (nm): (liquid); 370 nm (gel)
[3]; ex. 370 nm, gel
  Emission peak (nm): ex. 370 nm, em. 736

## C[n+]1cc2c3c(ccc2c2ccc4cc5c(cc4c21)OCO5)OCO3.[Cl-] [Sanguinarine chloride hydrate]
[3]; ex. 300 nm, liquid
  Emission peak (nm): em. 600 nm (liquid);
[3]; ex. 330 nm, gel
  Emission peak (nm): nm, em. 590 nm
[3]; ex. 405 nm, liquid
  Emission peak (nm): ex. 405 nm, em. 600
[3]; ex. 460 nm, gel
  Emission peak (nm): ex. 460 nm, em. 591
[3]; ex. 460 nm, liquid
  Emission peak (nm): nm, em. 600 nm
[1]; organic solvent or mixture
  solubility: 3330 µg/mL

## O=C1C[C@@](O)(C(=O)O)C(C(=O)O)O1 (stereo partly drawn) [Garcinia acid]
[2]; gel and liquid
  Absorbance peak (nm): 300 nm (gel and
[1]; organic solvent or mixture
  solubility: 10000 µg/mL (≈ 52.6 mM)

## COc1cc(/C=C/C(=O)/C=C(O)/C=C/c2ccc(O)c(OC)c2)ccc1O [Curcumin]
[2]; medium not stated
  Absorbance peak (nm): 440 nm
[3]; ex. 390 nm, liquid
  Emission peak (nm): em. 540 nm (liquid);
[3]; ex. 440 nm, gel
  Emission peak (nm): ex. 440 nm, em. 552
[3]; ex. 460 nm, gel
  Emission peak (nm): ex. 460 nm, em. 555
[3]; ex. 460 nm, liquid
  Emission peak (nm): nm, em. 544 nm
[1]; organic solvent or mixture
  solubility: 5000 µg/mL (≈ 13.6 mM)

## O=C1c2cccc(O)c2C(=O)c2c(O)cc(CO)cc21 [Aloe-emodin]
[3]; ex. 460 nm, gel
  Emission peak (nm): nm, em. 600 nm
[3]; ex. 460 nm, liquid
  Emission peak (nm): ex. 460 nm, em. 588
[1]; organic solvent or mixture
  solubility: 10000 µg/mL (≈ 37 mM)

## O=C(/C=C/C=C/c1ccc2c(c1)OCO2)N1CCCCC1 [Piperine]
[2]; medium not stated
  Absorbance peak (nm): 344 nm
[3]; ex. 340 nm, medium not stated
  Emission peak (nm): nm, em. 443 nm
[3]; ex. 460 nm, gel
  Emission peak (nm): ex. 460 nm, em. 634

## CC(C)=CCC/C(C)=C/C=C/C(C)=C/C=C/C(C)=C/C=C/C=C(C)/C=C/C=C(C)/C=C/C=C(\C)CCC=C(C)C [Lycopene]
[2]; gel
  Absorbance peak (nm): 490 nm
[1]; organic solvent or mixture
  solubility: 1000 µg/mL (≈ 1.86 mM)

## CCCCCCCCC[C@H](O)CC(=O)CCc1ccc(O)c(OC)c1 [10-Gingerol]
[2]; gel and liquid
  Absorbance peak (nm): 300 nm (gel and
[1]; organic solvent or mixture
  solubility: 10000 µg/mL (≈ 28.5 mM)

## Cc1cc(O)c2c(=O)c3c(O)cc(O)c4c5c(O)cc(O)c6c(=O)c7c(O)cc(C)c8c1c2c(c34)c(c78)c65 [Hypericin]
[3]; ex. 345 nm, liquid
  Emission peak (nm): nm, em. 700 nm
[3]; ex. 460 nm, liquid
  Emission peak (nm): ex. 460 nm, em. 700
[3]; ex. 620 nm, liquid
  Emission peak (nm): em. 700 nm (liquid);
[4]
  solubility: 500 µg/mL (≈ 0.991 mM)

## Oc1ccc(/C=C/c2cc(O)cc(O)c2)cc1 [Resveratrol]
[1]; organic solvent or mixture
  solubility: 10000 µg/mL (≈ 43.8 mM)

## COc1ccc2cc3[n+](cc2c1OC)CCc1cc2c(cc1-3)OCO2 [Berberine chloride hydrate]
[3]; ex. 340 nm, gel
  Emission peak (nm): ex. 340 nm, em. 538
[3]; ex. 430 nm, liquid
  Emission peak (nm): nm, em. 545 nm (liquid)
[3]; ex. 460 nm, gel + liquid
  Emission peak (nm): ex. 460 nm, em. 540

## CC1=C(/C=C/C(C)=C/C=C/C(C)=C/C=C/C=C(C)/C=C/C=C(C)/C=C/C2=C(C)C[C@@H](O)CC2(C)C)C(C)(C)C[C@H](O)C1 [Zeaxanthin]
[2]; gel and liquid
  Absorbance peak (nm): 465 nm (gel and
[3]; ex. 300 nm, gel
  Emission peak (nm): 415 nm and 432 nm and 740 nm and 817 nm
[1]; organic solvent or mixture
  solubility: 2000 µg/mL (≈ 3.52 mM)
